# In a melting point compilation (Tetko et al.; mined from patent text by program, amines drawn as free bases though some values may be those of a salt):
row,SMILES,melting point
1,CCOc1cccc(C(c2ncccc2OC)n2nc(C(=O)O)c3c2-c2ccc(OCc4cncnc4)cc2CC3)c1 (stereo not drawn),222 to 225 °C
2,C1=C(c2ccccc2)CCN(Cc2n[nH]c3c2CCc2ccccc2-3)C1,175 to 176 °C
3,CCc1n[nH]c(CC)c1CCCCCCOc1ccc(Br)cc1,31 to 33 °C
4,Fc1ccc(-c2nn3c(c2-c2ccncc2)NCCC3)cc1,207 to 209 °C
5,COc1cc(C)nc(NC(=O)NS(=O)(=O)c2c(C)nn(C)c2S(=O)(=O)N(C)C)n1,215 to 217 °C
6,O=C(O)CC1(CC(O)=NO)CCCCCC1,90 to 100 °C
7,NC(=C[N+](=O)[O-])NC1CCCCCC1,118 to 125 °C
8,CCN(CC)C(=O)c1ccc(-c2nc(=O)c3ccccc3s2)cc1,180 °C
9,COc1ccc(C2(C#N)CCC(=O)CC2)cc1,77.5 to 79.5 °C
10,C/C(CCN1CCCC1c1ccc(Cl)c(Cl)c1)=N\O (stereo not drawn),145 to 147 °C
11,COc1cccc(-n2c(=O)oc3ccc(-c4ccc(F)cc4F)cc3c2=O)c1,160 to 161 °C
12,OC[C@H]1COc2ccc3scc(Cl)c3c2O1,92 to 93 °C
13,O=C(CC(c1ccccc1)c1ccccc1)NC(Cc1ccccc1)C(=O)O (stereo not drawn),138 to 140 °C
14,CC1CC1n1cc(C(=O)O)c(=O)c2cc(F)c(F)c(F)c21 (stereo not drawn),167 to 168 °C
15,CCOC(=O)c1cn(N)c2nc(C)ccc2c1=O,173 to 174 °C
16,N#Cc1cc2c(nc1NC1CCCCC1)CCCC2=O,143 to 145 °C
17,COC(=O)C(=O)c1ccccc1COc1ccc(-c2ccccc2)cc1,106 to 107 °C
18,Cc1ccc([C@@H]2c3c(C)c(N4CCC(c5ccccc5)CC4)c(C)c(C)c3OC2(C)C)cc1,137 to 140 °C
19,CCOc1nn(-c2ccc(C(F)(F)F)cn2)cc1CCCOc1ccc(CCC(=O)O)c(OCc2ccccc2)c1,128 to 130 °C
20,COC(CNC(=O)C=CC(=O)O)OC,91 to 92 °C
21,Cc1nnc(-c2ccc3ncn(-c4cccc(OC(F)(F)F)c4)c3c2)o1,153 to 154 °C
22,CC(=O)CC(=S)N1N=C(c2ccc([N+](=O)[O-])cc2)c2cc3c(cc2CC1C)OCO3 (stereo not drawn),178 to 185 °C
23,CC(C)(C)CC(C)(C)c1cc(-n2nc3ccc(-c4ccc(-c5ccccc5)cc4)cc3n2)c(O)c(C(C)(C)c2ccccc2)c1,181 to 183 °C
24,FC(F)(F)c1ccc(-n2ccc3c(Cl)nccc32)c(Cl)c1,133 to 135 °C
25,CCC1=NC=C(c2ccc3c(c2)NC(=O)CO3)C(c2ccccc2)S1 (stereo not drawn),130 to 134 °C

row,SMILES,melting point
1,Oc1cc2ccccn2n1,127 to 128 °C
2,Clc1ccc(OCC2CO2)c(OCc2ccccc2)c1Cl (stereo not drawn),65 °C
3,Cc1nc2cc3c(cc2c(=O)n1COC(=O)C(C)(C)C)C(=O)CC3,203 to 205 °C
4,Fc1ccc(Nc2ncnc3cnc(NC4CCC(N5CCCC5)CC4)nc23)cc1Cl (stereo not drawn),192 to 195 °C
5,CCCOc1ccc(-c2ncccc2S(=O)(=O)Nc2ncc(C)nc2OC)cc1,134 to 135 °C
6,CN(C(=O)c1cnn(C)c1C(=O)Nc1ccn2nc(N3CCOCC3)nc2c1)C1CC1,172 to 175 °C
7,CCn1c(Oc2cccc(N3CCC(O)CC3)c2)nnc1[C@@H](C)NS(=O)(=O)c1ccc(Cl)c(Cl)c1,168 to 170 °C
8,C#CCN1C(=O)COc2cc(F)c(-c3ncnc(C(F)(F)F)c3Cl)cc21,158 to 159 °C
9,CC(=O)OCC1OC(n2c3ncccc3c3c4c(n5cncc5c32)C(=O)N(C)C4=O)C(OC(C)=O)C(OC(C)=O)C1OC(C)=O (stereo not drawn),204 °C
10,CN(C)S(=O)(=O)c1cc(-c2csc(=Nc3ccc4c(c3)OCCO4)n2C)ccc1Cl,200 to 203 °C
11,CCC(c1ccccc1)(c1ccccc1)c1ccnc(C(N)=O)c1,144 to 147 °C
12,CC(C)(C)OC(=O)N1CCC(CNC(=O)c2cc(Cl)c(N)c3c2OCC3)C(O)C1 (stereo not drawn),218 °C
13,CCOC(=O)C1=Cc2cc(Cl)ccc2OC1C(F)(F)F (stereo not drawn),62 to 64 °C
14,COc1ccc(CC(=O)NC2CCN(Cc3ccccc3)CC2)cc1,171 to 173 °C
15,O=C(Cc1cccnc1)N1CCC(C2=c3ccc(Cl)cc3=CCc3c(Cl)ccnc32)CC1,100 to 103 °C
16,CNC(=O)c1ccccc1Nc1nc(Nc2cc3c(cc2OC)CCOC(=O)N3C)ncc1Cl,256 to 258 °C
17,COC(=O)COc1cc2ccccc2c2c1c(C(=O)C(N)=O)c(C)n2Cc1cccc(-c2ccc(F)cc2)c1,157 to 159 °C
18,CCCCc1ncc(CCC(=O)O)n1Cc1ccccc1Cl,164 °C
19,O=C(Nc1cccc(S(=O)(=O)Nc2ccccc2)c1)NC1N=C(c2ccccc2F)c2ccccc2N(CC(=O)N2CC3CCC(CC3)C2)C1=O (racemic),181 to 188 °C
20,OCC1OC(n2c(Cl)c(-c3ccsc3)c3cc(Cl)c(Cl)cc32)CC1O (stereo not drawn),144 to 145 °C
21,CN(C)C=NC(C#N)=CN(C)C,78 to 81 °C
22,O=C(O)c1ccc(CBr)c(C(F)(F)F)c1,136 to 140 °C
23,Cc1ccc2oc(=O)c(C(=O)Oc3cc([N+](=O)[O-])ccc3[N+](=O)[O-])cc2c1,225 to 229 °C
24,CS(=O)(=O)Nc1ccc(C=C2CCOC2=O)cc1Oc1ccc(F)cc1F,179 to 180 °C
25,O=C(O)CCCCCCCn1nc(-c2ccccc2)c(-c2ccccc2)n1,86 to 88 °C

row,SMILES,melting point
1,CN(C)c1nc(N)nc2c1sc(=O)n2C1OC(CO)C(O)C1O (stereo not drawn),> 112 °C
2,O=[N+]([O-])c1ccc(Oc2ncc(C(F)(F)F)cc2Cl)cc1,90 to 91 °C
3,CN(C)C1(c2ccccc2)CCC2(CC1)NCCc1c2[nH]c2ccccc12 (stereo not drawn),214 to 218 °C
4,Cn1cc(-c2cc3cccnc3[nH]2)c2cc(CCC(=O)O)ccc21,268 to 270 °C
5,C=CCOc1cc(OC)ccc1C(=O)c1ccccc1,40 °C
6,CC(C)(C)Sc1c(CC(C)(C)C(=O)O)n(Cc2ccc(Cl)cc2)c2ccc(-c3ccccc3)cc12,245 to 246 °C
7,CCCCCCCc1c(C)[nH]c(C(=O)OCC)c1C,47 to 49 °C
8,CC(C)CC1(C(CCNC(=O)c2ccc(F)c(F)c2)C(=O)OC(C)(C)C)CCN(CCc2ccccc2)C1=O (stereo not drawn),147 to 148 °C
9,COc1ccc2cccc(C(F)CNC(C)=O)c2c1 (stereo not drawn),128 to 130 °C
10,NCc1ccccc1C(=O)N[C@H]1CN(S(=O)(=O)O)C1=O,162 to 165 °C
11,CCOC(=O)c1cn(CC)c2nc(-c3ccncc3)c(F)cc2c1=O,185 to 186 °C
12,Cc1[nH]c2ccc(F)cc2c1C(=O)NC1CCN(Cc2ccccc2)CC1,166 to 169 °C
13,COc1ccc2c(c1)NC(=O)c1ccccc1O2,164 to 165 °C
14,COc1cc(NC(=O)CCCCCN2CCN(C)CC2)c2nccc(C)c2c1,104 to 107 °C
15,Cc1oc(-c2ccco2)nc1COc1ccc(COc2nn(Cc3ccccc3)cc2C(=O)O)cc1,170 to 171 °C
16,Cc1cc(CCCCCCCOc2ccc(C(N)=O)cc2)on1,153 to 154 °C
17,CCOC(=O)c1cc2cc(Cl)cc([N+](=O)[O-])c2o1,111 to 112 °C
18,COc1ccccc1-c1nc2ccc(C(=O)O)cc2c(=O)[nH]1,295 to 297 °C
19,Cc1ccc(-c2c(Cl)ccc3c2C=C(C(=O)O)C(C(F)(F)F)O3)cc1 (stereo not drawn),218 to 220 °C
20,CCCCCC(=O)OCn1cc(F)c(=O)[nH]c1=O,95 to 96 °C
21,COc1ccc2c(c1)Sc1c(cc(OC)c(OC(C)=O)c1Br)N2C(=O)OC(C)OC(C)=O (stereo not drawn),134 to 135 °C
22,CNC(=O)N(C)c1nc(CC(=O)Nc2cccc(C(F)(F)F)c2)cs1,125 to 127 °C
23,NC(=O)NC[C@@H]1CCCc2cc(Sc3cccc(F)c3)cc(F)c21,131 to 132 °C
24,CS(=O)(=O)c1ccc(-c2cnn(-c3ccccc3C=O)c(=O)c2-c2ccc(F)cc2)cc1,234 to 236 °C
25,O=C1Nc2ccc(I)cc2C1=NNC(=O)c1ccc(OCc2ccccc2)cc1,298 °C

row,SMILES,melting point
1,CCCCCNc1nc(NCC(C)C)c2ncn(CC(=O)O)c2n1,139 to 148 °C
2,CCOC(=O)c1sc(C)c(C(=O)OCC)c1OC,109 to 111 °C
3,Cc1cc(COc2ccc(S(=O)(=O)NC[C@@H](C(=O)NO)N3CCN(Cc4ccc(F)cc4)CC3)cc2)c2ccccc2n1,180 °C
4,COC(=O)CCNC(=O)c1cc(NC(=O)c2ccc(C(=N)NC(=O)OC(C)(C)C)cc2)ccc1O,177 to 179 °C
5,c1ccc(COc2n[nH]cc2-c2ccccc2)cc1,163 °C
6,CCC(Oc1cccc(C(F)(F)F)c1C)C1=NCCN1 (stereo not drawn),120 to 122 °C
7,CCc1cc2[nH]c(=O)cc(O)c2c(CC)n1,322 to 325 °C
8,CC(C)c1ccc(Nc2cccc3c2C(=O)N(C2CCC(=O)NC2=O)C3=O)cc1 (stereo not drawn),138 to 140 °C
9,COc1ccc(Oc2ncc(Br)cn2)cc1,92 °C
10,CCCCCCC(=O)c1ccc2cc(OC)ccc2c1,69 to 72 °C
11,COC(=O)/C=C/c1ccc(C)cc1C#N,95 to 96 °C
12,O=C(NCc1ccccc1)Nc1ccc(CN2C(=O)[C@H]3CCC[C@H]3N(C(=O)CN3C(=O)c4ccccc4C3=O)c3ccccc32)cc1 (relative stereo),169 to 171 °C
13,Cn1c(=O)c2c(C#N)cccc2n2cnc(-c3noc(C4CC4)n3)c12,115 to 125 °C
14,O=S1(=O)N=C(NC2CCCC2)Nc2cc(F)ccc21,295 to 298 °C
15,Nc1ccc2c(c1)CCc1cc(=O)[nH]nc1-2,290 to 292 °C
16,CC(=O)N1CCN(c2ccc(N)c(C)c2)CC1,126 to 129 °C
17,CS(=O)(=O)c1ccc(-c2sc(CC#N)nc2-c2ccc(F)cc2)cc1,151 to 152 °C
18,O=CCNc1[nH]c(-c2ccc(F)cc2)nc1-c1ccccc1,256 to 258 °C
19,OC1CSC(Oc2cccnc2-c2ccco2)C(O)C1O (stereo not drawn),184 °C
20,C=C(C)C(=O)OCCNC(=O)OCCOc1ccccc1-c1ccccc1OCCOC(=O)NCCOC(=O)C(=C)C,72 to 74 °C
21,N#Cc1cc(N)c(N)cc1C#N,262 to 264 °C
22,O=c1ccn(-c2ccccc2C(F)(F)F)nc1-c1ccnn1-c1ccccc1,145 to 146 °C
23,CON=C(c1ccc(OC(C)(C)C(=O)O)c(C)c1)c1cccs1,108 °C
